Experimental data reported in US20110217260A1, “METHOD OF ENHANCING EYELASH AND EYE BROW HAIR GROWTH” (priority 2010, published 2011).
Like-named read-outs stand apart in the source and are kept apart here.

Tests used:
[1] = system: cultured human hair follicles; conditions: cited from earlier work; for Effect on hair follicle growth in the absence of insulin: IGF-I and IGF-II 0.01-100 ng/ml; for Effect on hair follicle growth in the presence of insulin: 10 micrograms/ml insulin present; for Preventing hair follicles from entering a catagen-like state, compared with insulin / Rate of hair follicle growth compared with 10 micrograms/ml insulin: IGF-I 10 ng/ml, IGF-II 100 ng/ml
[2] = Excerpt: Discontinue the treatment till it disappears and restart the program. Latisse needs a prescription from a doctor in order to purchase Latisse like you would get any other medication. […] If one develops hypoglycemic symptoms due to any number of reasons, drink a sugar drink, eat a candy, or fruit cocktail.
[3] = system: eyelash hair follicles; experiment: Eyelash hair growth / hair follicle transplant after topical application; format: in vivo; conditions: insulin alone, no second hypertrichosis agent
Excerpt: Step 4: Apply selected hair growth therapeutic agent if need be such as minoxidil or prostaglandin derived hair growth promoters which are already approved for hair growth of the eyelashes. […] Apply the clean dressing on the wound if need be.
Step 4: Apply selected hair growth therapeutic agent using PGF 2α, and analogues. Using these hair growing prostaglandins after pretreatment of the eye lids site with insulin results in much more rapid hair growth compared to when applied without insulin.

[4] = system: indolent ulcers; experiment: Local insulin on indolent ulcers, wound healing; format: in vivo; conditions: insulin spray on indolent ulcers, unpublished data
Excerpt: We have used insulin for more than a decade to enhance the effectiveness of locally injected therapeutic agents specially cancers with chemotherapeutic agents with remarkable results. Our unpublished data also supports that the insulin spray on indolent ulcers anywhere in the body, including the oral (gums) and nasal cavity. […] Application of insulin soaked cotton swabs (1-3 units in normal saline) after teeth extraction induces rapid healing with reduced pain.

[5] = system: MCF-7 human breast cancer cells; conditions: MCF-7 cells; cited from earlier work
[6] = in vivo; cited from earlier work

| Substance | Effect on hair follicle growth in the absence of insulin [1] | Effect on hair follicle growth in the presence of insulin [1] | Preventing hair follicles from entering a catagen-like state, compared with insulin [1] | Rate of hair follicle growth compared with 10 micrograms/ml insulin [1] | Concentration giving maximum rates of hair follicle growth ([1]; in the absence of insulin) | other results |
| --- | --- | --- | --- | --- | --- | --- |
| Growth hormone: growth hormone (somatotropin) | no effect on hair follicle growth or morphology |  |  |  |  |  |
| IGF-I: insulin-like growth factor 1, a growth hormone believed to work with androgens to initiate and maintain hair growth | stimulated hair follicle growth in a dose-dependent manner | no significant effect on hair follicle growth | more potent than insulin | identical | 10 ng/mL |  |
| IGF-II: Insulin-like growth factor II | stimulated hair follicle growth in a dose-dependent manner | no significant effect on hair follicle growth | more potent than insulin | unable to stimulate hair follicle growth to the same extent as insulin | 100 ng/mL |  |
| Insulin: hormone secreted by beta cells in the islets of Langerhans in the pancreas |  |  |  |  |  | Hypoglycemia ([2]; after application of insulin to the eye lids): none of our cases developed hypoglycemia; Darkening of the eye lids ([2]; insulin alone): did not result in any appreciable darkening of the eye lids; Wound healing, uptake and growth of hair follicle transplant [3]: enough to facilitate rapid wound healing along with uptake and growth of hair follicle transplant; Wound healing [4]: accelerated wound healing; Concentration giving maximum rates of hair follicle growth ([1]; follicles maintained in medium containing insulin): 10 micrograms/ml; Effect of insulin on hair follicle growth ([1]; range of 0.01 to 100 micrograms/ml): stimulated hair follicle growth in a dose-dependent manner; Increase of the cytotoxic effect of methotrexate [5]: up to 10,000 fold |
| Regular (R) humulin or novolin: Short-acting insulin |  |  |  |  |  | Duration of action [6]: 5 to 8 h; Onset of action [6]: 30 to 60 min; Peak effect [6]: 2 to 5 h |
